Experimental data reported in patent EP1120414A1, “DISUBSTITUTED MALEIMIDE COMPOUNDS AND MEDICINAL UTILIZATION THEREOF” (Japan Tobacco Inc., priority 1998, dated 2000).
Structures can show the parent of a compound that is named as a salt. Where two headings read alike, the source gives them in different places.

What was measured:
PKC α = target: T1, PKC α (Homo sapiens, UniProt P17252); experiment: PKC enzyme assay (BIOTRAK Protein kinase C enzyme assay system, 32P-ATP phosphorylation of peptide […]); assay type: biochemical
T1 construct: purchased CALBIOCHEM
Procedure: (§1) As the reagent for enzyme assay, BIOTRAK Protein kinase C enzyme assay system (hereinafter the system, Amersham), and as the PKC enzyme standard product, Protein Kinase C, Human Recombinant (CALBIOCHEM) were purchased and used in the assay. A substrate mixture was prepared by mixing calcium buffer (12 mM calcium acetate, 50 mM Tris/HCl pH 7.5, 0.05% (w/v) sodium azide), Lipid (0.3 mg/ml La-phosphatidyl-L-serine, […] phorbol 12-myristate 13-acetate, 50 mM Tris/HCl pH 7.5, 0.05% (w/v) sodium azide), peptide buffer (900 µM peptide […]), 50 mM Tris/HCl pH 7.5, 0.05% (w/v) sodium azide), DTT buffer (30 mM dithiothreitol, 50 mM Tris/HCl pH 7.5, 0.05% (w/v) sodium azide), and magnesium ATP buffer (1.2 mM ATP, […] pH 7.4, 72 mM magnesium chloride) all attached to the system in a ratio of 1:1:1:1:0.8 and adding [ y -32P]ATP (Amersham, cat. […] The PKC enzyme standard product was diluted with an assay buffer (10 mM Hepes pH 7.4, 0.01% Triton X-100) to a concentration of 400 ng/ml and used as the enzyme solution. The substrate mixture and a test substance (diluted to the final concentration of 1 nM-10 µM with dimethyl sulfoxide (DMSO)) were mixed at a ratio of 20:1. The enzyme solution was added in the amount equivalent to the substrate mixture and mixed, which was followed by incubation at 37°C for 15 minutes. The reaction terminator (300 mM orthophosphoric acid containing carmosine red) attached to the system was added in the amount equivalent to the substrate mixture to end the reaction, and the reaction mixture was spotted on a phosphocellulose paper (Whatman, P-81), washed twice with 75 mM orthophosphoric acid and assayed for radioactivity by BAS2000 (Fuji film).
(§2) The ratio of the radioactivity of the addition of the test substance to the addition of DMSO was determined, and IC50 was calculated from inhibition at each concentration.

PKC β II = target: T2, PKC β II (Homo sapiens, UniProt P05771); experiment: as above; assay type: biochemical; conditions: for Ratio α/β: IC50 PKC α / IC50 PKC β II
T2 construct: purchased CALBIOCHEM
T2 sequence (P05771 other isoform, or with tags, fused parts or gaps): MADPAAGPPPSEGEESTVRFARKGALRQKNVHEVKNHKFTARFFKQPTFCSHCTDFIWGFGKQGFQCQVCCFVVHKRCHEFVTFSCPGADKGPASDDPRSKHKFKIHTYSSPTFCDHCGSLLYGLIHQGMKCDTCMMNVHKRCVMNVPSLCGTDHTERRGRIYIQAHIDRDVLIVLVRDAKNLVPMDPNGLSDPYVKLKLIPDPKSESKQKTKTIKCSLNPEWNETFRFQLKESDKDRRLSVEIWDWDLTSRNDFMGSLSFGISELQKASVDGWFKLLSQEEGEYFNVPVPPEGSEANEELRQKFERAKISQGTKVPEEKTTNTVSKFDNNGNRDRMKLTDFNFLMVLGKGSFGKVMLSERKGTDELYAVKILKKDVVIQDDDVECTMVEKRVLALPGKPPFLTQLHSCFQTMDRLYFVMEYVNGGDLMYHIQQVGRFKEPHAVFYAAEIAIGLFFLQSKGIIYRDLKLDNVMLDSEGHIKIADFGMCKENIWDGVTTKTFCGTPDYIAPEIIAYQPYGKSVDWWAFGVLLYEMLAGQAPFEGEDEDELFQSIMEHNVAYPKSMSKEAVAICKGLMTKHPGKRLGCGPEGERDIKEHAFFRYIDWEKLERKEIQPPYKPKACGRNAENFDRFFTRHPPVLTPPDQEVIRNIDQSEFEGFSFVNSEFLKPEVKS
Source text: The method for determining the PKC inhibitory activity of the compound of the present invention is explained in the following. Inasmuch as PKCβII is present in greater number in intravascular cells than PKCβI, PKCβII was mainly used here to test the enzyme activity.
as §1, §2

[1] = read-out: Inhibition of PKC activity IC50 PKC α; Protein Kinase C, Human Recombinant; test substance 1 nM-10 µM; 37°C, 15 minutes
[2] = read-out: Inhibition of PKC activity IC50 PKC β II, Protein Kinase C, Human Recombinant, test substance 1 nM-10 µM, 37°C, 15 minutes
[3] = Protein Kinase C, Human Recombinant; test substance 1 nM-10 µM; 37°C, 15 minutes; read-out: Inhibition of PKC activity IC50 PKC α
[4] = Protein Kinase C, Human Recombinant, test substance 1 nM-10 µM, 37°C, 15 minutes, read-out: Inhibition of PKC activity IC50 PKC β II

| Structure (SMILES) | IC50 (PKC α; [1]) | Ratio α/β (PKC β II) | IC50 (PKC β II; [2]) | IC50 (PKC α; [3]) | IC50 (PKC β II; [4]) | IC50 (PKC β II) |
| --- | --- | --- | --- | --- | --- | --- |
| O=C1NC(=O)C(c2cn(CCn3ccnc3)c3ccccc23)=C1Nc1ccccc1 [Example 2-62, 3-[1-(2-imidazol-1-ylethyl)-1H-indol-3-yl]-4-(phenylamino)-1H-pyrrole-2,5-dione] |  | 55 |  | 4430 nM | 81 nM |  |
| N=C(N)SCCCn1cc(C2=C(Nc3ccccc3)C(=O)NC2=O)c2ccccc21 [Example 2-43, 3-[1-(3-amidinothiopropyl)-1H-indol-3-yl]-4-(phenylamino)-1H-pyrrole-2,5-dione hydrobromide] |  |  |  | 27 nM | 2 nM |  |
| O=C1NC(=O)C(c2cn(CCCO)c3ccccc23)=C1Nc1ccc(Cl)c(Cl)c1 [Example 2-6, 3-[(3,4-dichlorophenyl)amino]-4-[1-(3-hydroxypropyl)-1H-indol-3-yl]-1H-pyrrole-2,5-dione] |  | 55 |  | 3310 nM | 60 nM |  |
| Cc1cccc(NC2=C(c3cn(CCCO)c4ccccc34)C(=O)NC2=O)c1 [Example 2-2, 3-[1-(3-hydroxypropyl)-1H-indol-3-yl]-4-[(3-methylphenyl)amino]-1H-pyrrole-2,5-dione] |  | 70 |  | 2860 nM | 41 nM |  |
| NC(=O)N1CCC(Cn2cc(C3=C(Nc4ccccc4)C(=O)NC3=O)c3ccccc32)CC1 [Example 3-6, 3-[1-{(1-carbamoylpiperidin-4-yl)methyl}-1H-indol-3-yl]-4-(phenylamino)-1H-pyrrole-2,5-dione] |  | 34 |  | 3660 nM | 108 nM |  |
| O=C1NC(=O)C(c2c3n(c4ccccc24)C[C@H](CO)C3)=C1Nc1ccccc1 [Example 4-58] | 1020 nM | 73 |  |  | 14 nM |  |
| O=C1NC(=O)C(c2c3n(c4ccccc24)C[C@@H](CN2CCCC2)C3)=C1Nc1ccccc1 [Example 4-67] | 542 nM | 68 |  |  | 8 nM |  |
| O=C1NC(=O)C(c2cn(CCO)c3ccccc23)=C1Nc1ccccc1 [Example 2-4, 3-[1-(2-hydroxyethyl)-1H-indol-3-yl]-4-(phenylamino)-1H-pyrrole-2,5-dione] |  | 79 |  | 5800 nM | 73 nM |  |
| O=C1NC(=O)C(c2c[nH]c3ccccc23)=C1Nc1ccccc1 [Example 1-2, 3-(1H-indol-3-yl)-4-(phenylamino)-1H-pyrrole-2,5-dione] |  |  |  | 7230 nM | 223 nM |  |
| O=C1NC(=O)C(c2cn(CCCCn3ccnc3)c3ccccc23)=C1Nc1cccc(Cl)c1 [Example 2-40, 3-[(3-chlorophenyl)amino]-4-[1-(4-imidazol-1-ylbutyl)-1H-indol-3-yl]-1H-pyrrole-2,5-dione] |  | 41 |  | 770 nM | 19 nM |  |
| Cc1cccc(NC2=C(c3cn(CCCN(C)C)c4ccccc34)C(=O)NC2=O)c1 [Example 2-11, 3-[1-(3-dimethylaminopropyl)-1H-indol-3-yl]-4-[(3-methylphenyl)amino]-1H-pyrrole-2,5-dione] |  | 49 |  | 727 nM | 15 nM |  |
| O=C1NC(=O)C(c2c3n(c4ccccc24)C[C@@H](CO)C3)=C1Nc1ccccc1 [Example 4-60] | 458 nM | 115 |  |  | 4 nM |  |
| O=C1NC(=O)C(c2cn(CC3CCN(CC(O)CO)CC3)c3ccccc23)=C1Nc1ccccc1 (stereo not shown) [Example 3-5, 3-[1-{[1-(2,3-dihydroxypropyl)piperidin-4-yl]methyl}-1H-indol-3-yl]-4-(phenylamino)-1H-pyrrole-2,5-dione] |  | 56 |  | 1630 nM | 29 nM |  |
| CN1CCC(Cn2cc(C3=C(Nc4ccccc4)C(=O)NC3=O)c3ccccc32)CC1 [Example 3-4, 3-[1-{(1-methylpiperidin-4-yl)methyl}-1H-indol-3-yl]-4-(phenylamino)-1H-pyrrole-2,5-dione] |  | 29 |  | 518 nM | 18 nM |  |
| NC(=O)C1CCCN1CCCn1cc(C2=C(Nc3ccccc3)C(=O)NC2=O)c2ccccc21 (stereo not shown) [Example 2-24, 3-[1-{3-(2-carbamoylpyrrolidin-1-yl)propyl}-1H-indol-3-yl]-4-(phenylamino)-1H-pyrrole-2,5-dione] |  | 42 |  | 2750 nM | 66 nM |  |
| Cc1cn(CCCn2cc(C3=C(Nc4cccc(Cl)c4)C(=O)NC3=O)c3ccccc32)cn1 [Example 2-58, 3-[(3-chlorophenyl)amino]-4-[1-{3-(4-methyl-imidazol-1-yl)propyl}-1H-indol-3-yl]-1H-pyrrole-2,5-dione] |  | 47 |  | 842 nM | 18 nM |  |
| CC(C)(C)OC(=O)C1CCN(CCCn2cc(C3=C(Nc4ccccc4)C(=O)NC3=O)c3ccccc32)CC1 [Example 2-51, 3-[1-{3-[4-(tert-butoxycarbonyl)piperidino]propyl}-1H-indol-3-yl]-4-(phenylamino)-1H-pyrrole-2,5-dione] |  | 38 |  | 1020 nM | 27 nM |  |
| NC(=O)C1CCN(CCCn2cc(C3=C(Nc4ccccc4)C(=O)NC3=O)c3ccccc32)CC1 [Example 2-33, 3-[1-{3-(4-carbamoylpiperidino)propyl}-1H-indol-3-yl]-4-(phenylamino)-1H-pyrrole-2,5-dione] |  | 68 |  | 676 nM | 10 nM |  |
| CN1CCN(CCCn2cc(C3=C(Nc4ccccc4)C(=O)NC3=O)c3ccccc32)CC1 [Example 2-26, 3-[1-{3-(4-methylpiperazin-1-yl)propyl}-1H-indol-3-yl]-4-(phenylamino)-1H-pyrrole-2,5-dione] |  |  |  | 968 nM | 23 nM |  |
| CN(C)CCCn1cc(C2=C(Nc3ccccc3)C(=O)NC2=O)c2ccccc21 [Example 2-8, 3-[1-(3-dimethylaminopropyl)-1H-indol-3-yl]-4-(phenylamino)-1H-pyrrole-2,5-dione] |  | 38 |  | 460 nM | 12 nM |  |
| O=C1NC(=O)C(c2cn(CCCCN3CCC(O)CC3)c3ccccc23)=C1Nc1cccc(Cl)c1 [Example 2-27, 3-[(3-chlorophenyl)amino]-4-[1-{4-(4-hydroxypiperidino)butyl}-1H-indol-3-yl]-1H-pyrrole-2,5-dione] |  | 37 |  | 973 nM | 26 nM |  |
| O=C1NC(=O)C(c2cn(CCCN3CCCCCC3)c3ccccc23)=C1Nc1ccccc1 [Example 2-23, 3-[1-(3-azacycloheptan-1-ylpropyl)-1H-indol-3-yl]-4-(phenylamino)-1H-pyrrole-2,5-dione] |  |  |  |  |  | 10 nM |

Results, then the molecule that gave them:

| IC50 (PKC α; [1]) | Ratio α/β (PKC β II) | IC50 (PKC β II; [2]) | IC50 (PKC α; [3]) | IC50 (PKC β II; [4]) | IC50 (PKC β II) | Structure (SMILES) |
| --- | --- | --- | --- | --- | --- | --- |
| 831 nM | 64 | 13 nM |  |  |  | O=C1NC(=O)C(c2c3n(c4ccccc24)CC(CN2CCC(O)CC2)C3)=C1Nc1ccccc1 (stereo not shown) [Example 4-27] |
| 1480 nM | 106 | 14 nM |  |  |  | O=C1NC(=O)C(c2c3n(c4ccccc24)C[C@@H](CO)C=C3)=C1Nc1ccccc1 [Example 4-53] |
| 592 nM | 85 | 7 nM |  |  |  | O=C1NC(=O)C(c2c3n(c4ccccc24)CC(Cn2ccnc2)C3)=C1Nc1ccccc1 (stereo not shown) [Example 4-37] |
| 228 nM | 60 | 4 nM |  |  |  | CNCC1Cc2c(C3=C(Nc4ccc(F)cc4)C(=O)NC3=O)c3ccccc3n2C1 (stereo not shown) [Example 4-32] |
| 569 nM | 57 | 10 nM |  |  |  | CCN(CC)C[C@H]1CCc2c(C3=C(Nc4ccccc4)C(=O)NC3=O)c3ccccc3n2C1 [Example 4-54] |
| 3880 nM | 68 | 57 nM |  |  |  | O=C1NC(=O)C(c2c3n(c4ccccc24)C[C@@H](CN2CCOCC2)CC3)=C1Nc1ccccc1 [Example 4-52] |
| 455 nM | 76 | 6 nM |  |  |  | CN(C)C[C@H]1Cc2c(C3=C(Nc4ccc(F)cc4)C(=O)NC3=O)c3ccccc3n2C1 [Example 4-69] |
| 632 nM | 53 | 12 nM |  |  |  | CCN(C)C[C@H]1Cc2c(C3=C(Nc4ccc(F)cc4)C(=O)NC3=O)c3ccccc3n2C1 [Example 4-66] |
| 2530 nM | 74 | 34 nM |  |  |  | CCN(C)C[C@@H]1CCc2c(C3=C(Nc4cccc(SC)c4)C(=O)NC3=O)c3ccccc3n2C1 [Example 4-48] |
